Source: article PMC9501280, “Anti-Inflammatory Activity of Soluble Epoxide Hydrolase Inhibitors Based on Selenoureas Bearing an Adamantane Moiety” (International Journal of Molecular Sciences, 2022)
“Also recorded” adds a separate entry of the source.

How the values were obtained:
[1] = Superoxide radical anion formation by xanthine oxidase (NBT assay); type: biochemical; conditions: sample solution 5 mM in DMSO
Protocol: The superoxide anion radical scavenging activity of derivatives 4a–g and 5a was evaluated by the ability to inhibit the reduction of nitro blue tetrazolium (NBT) to blue formazan by trapping O2^•− generated by xanthine oxidase in the oxidation of hypoxanthine to uric acid.
EDTA, xanthine, bovine serum albumin, nitro blue tetrazolium and xanthine oxidase (25 MU) were purchased from Sigma Aldrich (Burlington, MA, USA). The superoxide anions were generated enzymatically by the xanthine oxidase system. The reaction mixture consisted of 2.70 mL of 40 mM sodium carbonate buffer containing 0.1 mM EDTA (pH 10.0), 0.06 mL of 10 mM xanthine, 0.03 mL of 0.5% bovine serum albumin, 0.03 mL of 2.5 mM nitro blue tetrazolium and 0.06 mL of the sample solution in DMSO at the concentration of 5 mM. An amount of 0.12 mL of xanthine oxidase (0.04 units) was added to the mixture at 25 °C, and the absorbance at 560 nm (by formation of blue formazan) was measured by a microplate spectrophotometer for 60 s. A control experiment was carried out by replacing the sample solution with the same amount of DMSO.
Inhibition I (%) = [(1 − Ai/A0) × 100%], where Ai is the absorbance in the presence of the testing compound, and A0 is the absorbance of the blank solution. All experiments were performed three times.

[2] = Antiradical activity in nonenzymatic quinoid oxidation of adrenaline; conditions: adrenaline autoxidation without compound = 100%; initial concentration 25 µM
Protocol: The antiradical activity of compounds 4a–g and 5a in the reaction of nonenzymatic quinoid oxidation of adrenaline (1-(3,4-dioxyphenyl)-2-methylaminoethanol) in alkaline bicarbonate buffer was evaluated. As a result of this reaction, not only the superoxide anion radical is formed, but also radicals of carbonate–bicarbonate anions, which makes it possible to reveal the total antiradical activity of potential antioxidants. […] Thus, we confirmed the antiradical activity of compounds 4a–g and 5a with respect to O2^–• generated in enzymatic and nonenzymatic model systems.
SOD-protective activity of the biopreparation was the ability to utilize the superoxide anion radical O2^–•, as determined by the method of Sirota. A cytosolic fraction of the Russian sturgeon liver homogenate was used as the source of SOD. First, the sturgeon liver was washed with cold 0.2 M Tris (tris (hydroxymethyl) aminomethane) buffer (pH 7.8) to remove any traces of blood. All of the procedures were performed at a temperature of 0–4 °C. Next, a homogenate was obtained using a Potter homogenizer (Thomas Scientific, Swedesboro, NJ, USA) in 0.2 M Tris buffer at a ratio of 1:10. The homogenate was then centrifuged for 10 min at 1000× g to remove partially destroyed cells and nuclei. The resulting supernatant contained the enzymes of the cytosolic fraction of the liver homogenate, including the SOD. Here, 10 µL of the biopreparation was added to a cuvette with 200 µL of bicarbonate buffer (pH 10.65), 10 µL of the tested compound (initial concentrations of these compounds 25 µM) and 10 µL of 0.1% adrenaline solution and was thoroughly and quickly mixed. The rate of adrenaline oxidation without and in the presence of the biopreparation was evaluated by the change in optical density, measured at 347 nm for 3 min. The decrease in the rate of the process in the presence of the biopreparation was used to characterize the SOD-protective activity.

[3] = Cupric reducing antioxidant capacity (CUPRAC); conditions: Trolox equivalents (Trolox = 1); compound 0.5 mM, 30 min
From the text: (§1) To confirm the SET mechanism, the reducing activity of the compounds was studied using tests CUPRAC (Cupric-Reducing Antioxidant Capacity) and FRAP (Ferric ion-Reducing Antioxidant Power). Unlike the DPPH and ABTS tests, these methods are based only on the ability of substances to act as electron donors. It should be noted that the CUPRAC test has several advantages: the manifestation of activity at a pH close to the physiological value and a favorable redox potential; the method is applicable to both lipophilic and hydrophilic antioxidants. The antioxidant potential of the studied derivatives 4a–g and 5a is estimated in equivalents of the water-soluble analog of vitamin E—Trolox (TEAC—Trolox Equivalent Antioxidant Capacity), the activity of which is taken as the unit ([…] = 1, […] = 1).
Neocuproine (2,9-dimethyl-1,10-phenanthroline) and Trolox were used with no further purification. The method proposed by Apak et al. was used with slight modifications. For these measurements, 0.05 mL of CuCl2 solution (0.01 M), 0.05 mL of MeOH neocuproine solution (7.5 mM) and 0.05 mL of ammonium acetate buffer solution (1 M) were added to a test tube, followed by mixing with the 0.05 mL tested compounds (0.5 mM). The mixtures were kept at room temperature for 30 min. The absorbance was measured at 450 nm against a reagent blank. The results were presented in Trolox equivalents (Trolox equivalent antioxidant capacity, TEAC) obtained using absorbance data, and the linear calibration curve was plotted as the absorbance vs. Trolox concentration.

[4] = Ferric-reducing antioxidant power (FRAP); conditions: Trolox equivalents (Trolox = 1)
From the text: as §1
The sample solution (0.1 mL) was mixed with 0.1 mL phosphate buffer (0.2 M, pH 6.6) and 0.1 mL potassium ferricyanide (1%). For each test compound, different concentrations of EtOH were used (5, 10, 25, 50, 100, 200 and 250 μM). The resulting mixture was incubated at 50 °C for 20 min. After the incubation period, 0.1 mL trichloroacetic acid (10%), 0.5 mL deionized water and 0.1 mL ferric chloride (0.1%) were added to the mixture. The sample absorbance was read at 700 nm with a 96-cell microplate spectrophotometer. The reduction of Fe (III) to Fe (II) could be expressed as % inhibition or the equivalent of a standard compound (e.g., Trolox).

[5] = ABTS radical cation scavenging
Protocol: Thus, at the further steps, the complex investigation of the target compounds’ ability to interact with protons, electrons, and radicals was conducted.

SMILES: [Se]=C(Nc1ccccc1)NC12CC3CC(CC(C3)C1)C2 [4a, 1-(Adamantan-1-yl)-3-phenylselenourea]
- % Inhibition NBT [1]: 29.17 ± 0.01%
- % Inhibition, Antiradical Activity (O2–•) [2]: 35.49 ± 0.03%
- TEACCUPRAC [3]: 1.07 ± 0.11
- TEACFRAP [4]: 0.93 ± 0.06

SMILES: [Se]=C(NCC12CC3CC(CC(C3)C1)C2)Nc1ccccc1 [4b, 1-[(Adamantan-1-yl)methyl]-3-phenylselenourea]
- % Inhibition NBT [1]: 35.20 ± 1.46%
- % Inhibition, Antiradical Activity (O2–•) [2]: 19.37 ± 0.88%
- TEACCUPRAC [3]: 3.04 ± 0.11
- % Inhibition ABTS+• [5]: 53.01 ± 1.62%
- TEACFRAP [4]: 1.14 ± 0.03

SMILES: CC(NC(=[Se])Nc1ccccc1)C12CC3CC(CC(C3)C1)C2 (stereo not shown) [4c, 1-[1-(Adamantan-1-yl)ethyl]-3-phenylselenourea]
- % Inhibition NBT [1]: 6.52 ± 0.50%
- % Inhibition, Antiradical Activity (O2–•) [2]: 21.64 ± 2.29%
- TEACCUPRAC [3]: 3.39 ± 0.11
- % Inhibition ABTS+• [5]: 77.44 ± 1.78%
- TEACFRAP [4]: 1.81 ± 0.08

SMILES: [Se]=C(NCCC12CC3CC(CC(C3)C1)C2)Nc1ccccc1 [4d, 1-[2-(Adamantan-1-yl)ethyl]-3-phenylselenourea]
- % Inhibition NBT [1]: 6.85 ± 1.18%
- % Inhibition, Antiradical Activity (O2–•) [2]: 9.97 ± 0.41%
- TEACCUPRAC [3]: 3.29 ± 0.12
- % Inhibition ABTS+• [5]: 64.55 ± 2.30%
- TEACFRAP [4]: 1.32 ± 0.01

SMILES: [Se]=C(Nc1ccccc1)Nc1ccc(C23CC4CC(CC(C4)C2)C3)cc1 [4e, 1-[4-(Adamantan-1-yl)phenyl]-3-phenylselenourea]
- % Inhibition NBT [1]: 4.75 ± 0.50%
- % Inhibition, Antiradical Activity (O2–•) [2]: 23.68 ± 0.03%
- TEACCUPRAC [3]: 0.99 ± 0.05
- TEACFRAP [4]: 1.13 ± 0.14

SMILES: CC12CC3CC(C)(C1)CC(NC(=[Se])Nc1ccccc1)(C3)C2 [4f, 1-(3,5-Dimethyladamantan-1-yl)-3-phenylselenourea]
- % Inhibition NBT [1]: 10.93 ± 1.05%
- % Inhibition, Antiradical Activity (O2–•) [2]: 20.95 ± 1.20%
- TEACCUPRAC [3]: 0.22± 0.01
- % Inhibition ABTS+• [5]: do not exhibit antiradical properties; also recorded: nonactive
- TEACFRAP [4]: 0.57 ± 0.04

SMILES: [Se]=C(Nc1ccccc1)NC1C2CC3CC(C2)CC1C3 (stereo not shown) [4g, 1-(Adamantan-2-yl)-3-phenylselenourea]
- % Inhibition NBT [1]: 14.26 ± 1.48%
- % Inhibition, Antiradical Activity (O2–•) [2]: 24.66 ± 1.33%
- TEACCUPRAC [3]: 2.48 ± 0.16
- % Inhibition ABTS+• [5]: 47.21 ± 1.20%
- TEACFRAP [4]: 1.39 ± 0.03

SMILES: [Se]=C(NCc1ccccc1)NC12CC3CC(CC(C3)C1)C2 [5a, 1-(Adamantan-1-yl)-3-benzylselenourea]
- % Inhibition NBT [1]: 56.52 ± 0.05%
- % Inhibition, Antiradical Activity (O2–•) [2]: 43.79 ± 0.02%
- TEACCUPRAC [3]: 1.62 ± 0.4
- TEACFRAP [4]: 1.19 ± 0.04
